Active and inactive are the calls of the source. The rule behind the calls is not given here.
Columns and labels:
Spodoptera exempta = assay: Antifeedant activity in Spodoptera exempta by choice test; assay type: functional
Spodoptera littoralis = assay: Antifeedant activity in Spodoptera littoralis by choice test; assay type: functional
Schistocerca gregaria = assay: Antifeedant activity in Schistocerca gregaria at 0.01% dry weight of fiber disc containing 5% sucrose by choice test; assay type: functional
Locusta migratoria = assay: Antifeedant activity in Locusta migratoria at 0.01% dry weight of fiber disc containing 5% sucrose by choice test; assay type: functional
Spodoptera eridania = assay: Antifeedant activity in Spodoptera eridania by choice test; assay type: functional, organism-based
Epilachna varivestis = assay: Antifeedant activity in Epilachna varivestis by choice test; assay type: functional, organism-based
Schistocerca nitens = assay: Antifeedant activity in Schistocerca vaga by choice test; assay type: functional, organism-based
Manduca sexta = assay: Antifeedant activity in Manduca sexta by choice test; assay type: functional, organism-based
Saccharomyces cerevisiae = assay: Antimicrobial activity against Saccharomyces cerevisiae; assay type: functional
Cyberlindnera jadinii = assay: Antimicrobial activity against Candida utilis; assay type: functional
Sclerotinia sclerotiorum = assay: Antimicrobial activity against Sclerotinia libertiana; assay type: functional
Mucor mucedo = assay: Antimicrobial activity against Mucor mucedo; assay type: functional
Biomphalaria glabrata = assay: Molluscicidal activity against Biomphalaria glabrata after 2 hrs; assay type: functional
Biomphalaria pfeifferi = assay: Molluscicidal activity against Biomphalaria pfeifferi after 2 hrs; assay type: functional
Radix natalensis = assay: Molluscicidal activity against Lymnaea natalensis after 2 hrs; assay type: functional
KB = assay: Cytotoxicity against human KB cells; assay type: functional
[1] = Acute toxicity in sc dosed mouse; assay type: organism-based; conditions: in vivo

For `CC1(C)CCC[C@@]2(C)[C@H]1CC=C(C=O)[C@]2(O)C=O` [WARBURGANAL], which Activity (Spodoptera exempta) is on record?
The Activity was 0.1 ppm.

What about the Activity (Spodoptera littoralis) of the same compound?
The Activity was 10 ppm.

What about the Activity (Schistocerca gregaria) of the same compound?
Its Activity is 85%.

What about the Activity (Locusta migratoria) of the same compound?
Its Activity is 85%.

What about the Activity (Spodoptera eridania) of the same compound?
Its Activity is “inactive”.

What about the Activity (Epilachna varivestis) of the same compound?
Its Activity is “inactive”.

What about the Activity (Schistocerca nitens) of the same compound?
Its Activity is “inactive”.

What about the Activity (Manduca sexta) of the same compound?
Its Activity is “inactive”.

And the Activity (Saccharomyces cerevisiae)?
The Activity was 12.5 µg/mL.

And the Activity (Cyberlindnera jadinii)?
The Activity was 3.1 µg/mL.

And the Activity (Sclerotinia sclerotiorum)?
The Activity was 50 µg/mL.

What about the Activity (Mucor mucedo) of the same compound?
The Activity was 100 µg/mL.

And the Activity (Biomphalaria glabrata)?
The Activity was 5 ppm.

And the Activity (Biomphalaria pfeifferi)?
Its Activity is 5 ppm.

What about the Activity (Radix natalensis) of the same compound?
Its Activity is 10 ppm.

And the Activity (KB)?
The Activity was 0.01 µg/mL.

And the LD50 [1]?
Its LD50 is 20.4 mg/kg.

Source: ChEMBL document CHEMBL1151380, “Recent Studies on Bioactive Compounds From Plants” (J Nat Prod, 1982)
